Assay [1] has as its target T1, C5a anaphylatoxin chemotactic receptor 1 (Homo sapiens, UniProt P21730).
T1 sequence (P21730 whole entry): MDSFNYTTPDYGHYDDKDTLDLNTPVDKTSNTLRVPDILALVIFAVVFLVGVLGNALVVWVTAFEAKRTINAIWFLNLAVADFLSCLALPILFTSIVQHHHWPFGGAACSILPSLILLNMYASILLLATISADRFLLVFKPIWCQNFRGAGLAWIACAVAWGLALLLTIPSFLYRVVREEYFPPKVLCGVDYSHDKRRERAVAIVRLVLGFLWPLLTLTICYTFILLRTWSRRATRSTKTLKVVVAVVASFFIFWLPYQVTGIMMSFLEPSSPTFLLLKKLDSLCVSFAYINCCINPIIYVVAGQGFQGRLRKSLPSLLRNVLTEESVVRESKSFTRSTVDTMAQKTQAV
Description: Tested for the ability to compete with [125I]-CO13 ([125I]-Y-F-K-A-Cha-G-L-dF-R) for binding to C5a anaphylatoxin chemotactic receptor from human neutrophil membrane preparations.

The target in assay [2] is T2, C5a anaphylatoxin chemotactic receptor 1 (Homo sapiens) (UniProt P21730).
T2 sequence (whole entry): T1 sequence (P21730 whole entry)
Description: Inhibition of [125I]C5a binding to C5a anaphylatoxin chemotactic receptor of human neutrophil membrane preparations at 30 uM.

The target in assay [3] is T2, C5a anaphylatoxin chemotactic receptor 1 (Homo sapiens). In words: Tested for the ability to compete with [125I]-CO13 [125I]-Y-F-K-A-Cha-G-L-dF-R) for binding to C5a anaphylatoxin chemotactic receptor of human neutrophil membrane preparations at 30 uM concentration.
For assay [4], the target named is T1, C5a anaphylatoxin chemotactic receptor 1. Description: Tested for its ability to compete with [125I]C5a for binding to C5a anaphylatoxin chemotactic receptor of human neutrophil membrane preparations.
Assay [5] deals with T2, C5a anaphylatoxin chemotactic receptor 1 (Homo sapiens). In words: Tested for […] to evaluate its ability to block C5a induced myeloperoxide (MPO release from neutrophils (for antagonists) or induce MPO release (for agonists).
For assay [6], the target named is T1, C5a anaphylatoxin chemotactic receptor 1. Description: Tested for the its ability to compete with [125I]-CO13 [125I]-Y-F-K-A-Cha-G-L-dF-R) for binding to C5a anaphylatoxin chemotactic receptor of human neutrophil membrane preparations.
The target in assay [7] is T2, C5a anaphylatoxin chemotactic receptor 1 (Homo sapiens). In words: Tested for the ability to compete with [125I]-CO13 [125I]-Y-F-K-A-Cha-G-L-dF-R) for binding to C5a anaphylatoxin chemotactic receptor of human neutrophil membrane preparations. The following applies: concentration not given here.
Assay [8] shares this target. In words: Tested for the ability to compete with [125I]C5a for binding to human C5a anaphylatoxin chemotactic receptor of human neutrophil membrane preparations at 30 uM concentration.

The source of these data is ChEMBL document CHEMBL1130566, “A nonpeptidic agonist ligand of the human C5a receptor: Synthesis, binding affinity optimization and functional characterization” (Bioorg Med Chem Lett, 1997).

As to `N=C(N)NCCC[C@H]1NC(=O)N([C@H](Cc2ccc(F)cc2)C(=O)N2CCC3(CCc4ccccc43)CC2)C1=O`, the IC50 in assay [1] was 230 nM. This molecule returned an inhibition in assay [2] of 75%.
For `N=C(N)NCCC[C@H]1NC(=O)N([C@@H](Cc2ccccc2)C(=O)N2CCC3(CCc4ccccc43)CC2)C1=O`, the inhibition came to 3% in assay [2] and 15% in assay [3].
For `CC(O)[C@H](C(=O)N1CCC2(CCc3ccccc32)CC1)N1C(=O)N[C@H](CCCN=C(N)N)C1=O` (stereo partly specified) the same measures were 14% and 57%.
For the molecule `N=C(N)NCCC[C@H]1NC(=O)N([C@H](CC2CCCCC2)C(=O)N2CCC3(C=Cc4ccccc43)CC2)C1=O`, the IC50 in assay [4] came out at 1500 nM; in assay [1] it was 300 nM.
In assay [1], `N=C(N)NCCC[C@H]1NC(=O)N([C@H](Cc2ccc3ccccc3c2)C(=O)N2CCC3(CCc4ccccc43)CC2)C1=O` had an IC50 of 2000 nM. Further, in assay [2], the inhibition is 67%.
For `N=C(N)NCCC[C@H]1NC(=O)N([C@H](CC2CCC(C3CCCCC3)CC2)C(=O)N2CCC3(CCc4ccccc43)CC2)C1=O` (stereo partly specified), in assay [1], the IC50 came to 5000 nM. For the same molecule, in assay [2], the inhibition came out at 26%.
`NCCCC[C@H]1NC(=O)N([C@H](CC2CCCCC2)C(=O)N2CCC3(CCc4ccccc43)CC2)C1=O` showed an IC50 in assay [1] of 4000 nM.
Take `N=C(N)NCCC[C@@H]1NC(=O)N([C@H](Cc2ccccc2)C(=O)N2CCC3(CCc4ccccc43)CC2)C1=O`: the IC50 in assay [1] was determined as 4000 nM. Moreover, the inhibition in assay [2] came out at 39%.
The molecule `N=C(N)NCCC[C@H]1NC(=O)N([C@H](CC2CCCCC2)C(=O)N2CCC3(CCc4ccccc43)CC2)C1=O` showed a Release in assay [5] of 86%. Further, the values for the IC50 in assay [4] and in assay [1] were 300 nM and 25 nM, respectively.
Molecule `N=C(N)NCCC[C@H]1NC(=O)N([C@H](CC2CCCCC2)C(=O)N2CCN(c3ccccc3)CC2)C1=O` yielded an IC50 in assay [1] of 1000 nM. This molecule also gave an inhibition in assay [2] of 66%.
`CC(C)c1ccccc1N1CCN(C(=O)[C@@H](CC2CCCCC2)N2C(=O)N[C@H](CCCN=C(N)N)C2=O)CC1`: in assay [3], the inhibition worked out at 14%.
Take `N=C(N)NCCC[C@H]1NC(=O)N(C(Cc2ccccc2)C(=O)N2CCC3(CCc4ccccc43)CC2)C1=O` (stereo partly specified): the inhibition in assay [2] was found to be 60%; in assay [3], 78%.
`CCC[C@H](C(=O)N1CCC2(CCc3ccccc32)CC1)N1C(=O)N[C@H](CCCN=C(N)N)C1=O` returned an IC50 in assay [1] of 3000 nM. The inhibition in assay [2] turned out to be 63%.
`Nc1ccc(C[C@H]2NC(=O)N([C@H](CC3CCCCC3)C(=O)N3CCC4(CCc5ccccc54)CC3)C2=O)cc1` gave an inhibition in assay [3] of 75%.
As to `N=C(N)NCCC[C@H]1NC(=O)N([C@H](CC(=O)N2CCCCC2)C(=O)N2CCC3(CCc4ccccc43)CC2)C1=O`, the inhibition stood at 26% in assay [2] and 52% in assay [3].
In the case of `CC(C)[C@H](C(=O)N1CCC2(CCc3ccccc32)CC1)N1C(=O)N[C@H](CCCN=C(N)N)C1=O`, the IC50 in assay [1] is 1200 nM. In assay [2], this molecule gave an inhibition of 70%.
For the molecule `N=C(N)NCCC[C@H]1NC(=O)N([C@H](CC2CCCCC2)C(=O)N2CCC3(CC2)CC(=O)c2ccccc23)C1=O`, the IC50 in assay [1] worked out at 1500 nM. In assay [2], this molecule returned an inhibition of 58%.
Molecule `N=C(N)NCCC[C@H]1NC(=O)N([C@H](Cc2ccc(O)cc2)C(=O)N2CCC3(CCc4ccccc43)CC2)C1=O` yielded an IC50 in assay [1] of 4000 nM.
Molecule `CC(C)C[C@H](C(=O)N1CCC2(CCc3ccccc32)CC1)N1C(=O)N[C@H](CCCN=C(N)N)C1=O` showed a Release in assay [5] of 10%. For the same molecule, the IC50 was 2000 nM in assay [4] and 450 nM in assay [1].
As for `N=C(N)NCCC[C@H]1NC(=O)N([C@H](Cc2ccc(-c3ccccc3)cc2)C(=O)N2CCC3(CCc4ccccc43)CC2)C1=O`, the half-inhibitory concentration (IC50) in assay [6] amounted to 900 nM; in assay [4], 2300 nM.
In assay [5], `N=C(N)NCCC[C@H]1NC(=O)N([C@H](CC2CCCCC2)C(=O)N2CCC(c3ccccc3)CC2)C1=O` gave a Release of 88%. For the same molecule, the IC50 in assay [4] worked out at 400 nM; in assay [1], 30 nM.
As for `N=C(N)NCCC[C@H]1NC(=O)N([C@H](Cc2c[nH]c3ccccc23)C(=O)N2CCC3(CCc4ccccc43)CC2)C1=O`, the IC50 in assay [4] is 5000 nM; in assay [1] it was 450 nM.
For the molecule `CCCC[C@H](C(=O)N1CCC2(CCc3ccccc32)CC1)N1C(=O)N[C@H](CCCN=C(N)N)C1=O`, the figures for the inhibition in assay [2] and in assay [7] were 20% and 54%, respectively.
For `N=C(N)NCCC[C@H]1NC(=O)N(C(CCc2ccccc2)C(=O)N2CCC3(CCc4ccccc43)CC2)C1=O` (stereo partly specified), in assay [1], the half-maximal inhibitory concentration (IC50) was 3000 nM. The inhibition in assay [2] worked out at 46%.
As for `Cc1cccc(C)c1N1CCN(C(=O)[C@@H](CC2CCCCC2)N2C(=O)N[C@H](CCCN=C(N)N)C2=O)CC1`, the Release in assay [5] stood at 78%. Besides, the IC50 in assay [4] is 220 nM; in assay [1], 40 nM.
Consider `N=C(N)NCCC[C@H]1NC(=O)N([C@H](CC(=O)O)C(=O)N2CCC3(CCc4ccccc43)CC2)C1=O`, for which, in assay [2], the inhibition was found to be 0%.
Turning to `CC(=O)OCC1(c2ccccc2)CCN(C(=O)[C@@H](CC2CCCCC2)N2C(=O)N[C@H](CCCN=C(N)N)C2=O)CC1`, the inhibition in assay [2] was determined as 35%; in assay [3] it was 48%.
Regarding `N=C(N)NCCC[C@H]1NC(=O)N([C@H](Cc2cccc3ccccc23)C(=O)N2CCC3(CCc4ccccc43)CC2)C1=O`, in assay [1], the IC50 stood at 11000 nM. The molecule further returned an inhibition in assay [2] of 77%.
Molecule `N=C(N)NCCC[C@H]1NC(=O)N([C@@H](C(=O)N2CCC3(CCc4ccccc43)CC2)C(c2ccccc2)c2ccccc2)C1=O` yielded an inhibition in assay [8] of 75%.
In the case of `Cc1ccccc1N1CCN(C(=O)[C@@H](CC2CCCCC2)N2C(=O)N[C@H](CCCN=C(N)N)C2=O)CC1`, the Release in assay [5] is 76%. Also, the IC50 in assay [4] was 350 nM; in assay [1], 40 nM.
In the case of `CSCC[C@H](C(=O)N1CCC2(CCc3ccccc32)CC1)N1C(=O)N[C@H](CCCN=C(N)N)C1=O`, the IC50 in assay [1] stood at 3400 nM. The molecule also gave an inhibition in assay [2] of 57%.
In the case of `NC(=O)NCCC[C@H]1NC(=O)N([C@H](CC2CCCCC2)C(=O)N2CCC3(CCc4ccccc43)CC2)C1=O`, the inhibition in assay [3] came to 58%.
Take `N=C(N)NCCCC[C@H]1NC(=O)N([C@H](CC2CCCCC2)C(=O)N2CCC3(CCc4ccccc43)CC2)C1=O`: the IC50 in assay [1] came out at 300 nM.
Regarding `CC[C@@H](C)[C@H](C(=O)N1CCC2(CCc3ccccc32)CC1)N1C(=O)N[C@H](CCCN=C(N)N)C1=O`, in assay [5], the Release worked out at 31%. The figures for the IC50 in assay [4] and in assay [1] were 1200 nM and 200 nM, respectively.
The molecule `Cc1ccc(N2CCN(C(=O)[C@@H](CC3CCCCC3)N3C(=O)N[C@H](CCCN=C(N)N)C3=O)CC2)c(C)c1` displayed a Release in assay [5] of 90%. Besides, the IC50 in assay [4] is 300 nM; in assay [1], 60 nM.
Turning to `N=C(N)NCCC[C@H]1NC(=O)N([C@H](Cc2ccccc2)C(=O)N2CCC3(CCc4ccccc43)CC2)C1=O`, the IC50 in assay [4] came out at 8000 nM; in assay [1], 800 nM.

One may read the IC50 as the concentration that inhibits the measured activity by half. A lower IC50 goes with greater potency in that assay. Usually inhibition stands for the relative decrease from the control value, in per cent. The low end stands for a weak effect, the high end for a strong effect.
